{
  "source": "PubChem BioAssay AID180",
  "about": "(DTP/NCI, 2004)",
  "tested_on": "BDF1 mice, Adenocarcinoma 755 s.c., tumor weight T/C",
  "assay": "NCI In Vivo Anticancer Drug Screen. Data for tumor model Adenocarcinoma 755 (subcutaneous) in B6D2F1 (BDF1) mice",
  "conditions": "endpoint: mean tumor weight, higher = larger tumour",
  "outline": "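Values express treated (T) relative to vehicle-dosed control (C) animals, based on survival or tumour size measured after compound treatment of mice bearing a transplanted tumour.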",
  "key": {"[1]": {"conditions": "dose: 125.0 mg/kg/injection, schedule: Q01DX011 (ip), vehicle: methylcellulose (MC)"}, "[2]": {"conditions": "dose: 250.0 mg/kg/injection, schedule: Q01DX011 (ip), vehicle: methylcellulose (MC)"}},
  "note": "Where “and” joins values, the source holds several entries; their conditions need not be identical. Equal values may be shown once.",
  "data": [
    {"molecule": "CCOC(N)=O", "values": [
      {"measurement": "T/C", "setting": "dose: 62.5 mg/kg/injection, schedule: Q#A X022 (ip), vehicle: saline", "result": "52 % of control"},
      {"measurement": "T/C", "setting": "dose: 62.62 mg/kg/injection, schedule: Q01DX011 (ip), vehicle: carboxymethylcellulose (CMC)", "result": "79 % of control"},
      {"measurement": "T/C", "setting": "dose: 102.5 mg/kg/injection, schedule: Q01DX011 (ip), vehicle: carboxymethylcellulose (CMC)", "result": "94 % of control"},
      {"measurement": "T/C", "setting": "dose: 125.0 mg/kg/injection, schedule: Q01DX001 (ip), vehicle: saline", "result": "121 % of control"},
      {"measurement": "T/C", "setting": "dose: 125.0 mg/kg/injection, schedule: Q01DX006 (iv), vehicle: saline", "result": "75 % of control"},
      {"measurement": "T/C", "setting": "dose: 125.0 mg/kg/injection, schedule: Q01DX011 (im), vehicle: saline", "result": "83 % of control"},
      {"measurement": "T/C", "setting": "[1]", "result": "85 % of control"},
      {"measurement": "T/C", "setting": "dose: 125.0 mg/kg/injection, schedule: Q01DX011 (ip), vehicle: saline", "result": "68 % of control"},
      {"measurement": "T/C", "setting": "dose: 125.0 mg/kg/injection, schedule: Q01DX011 (sc), vehicle: saline", "result": "96 % of control"},
      {"measurement": "T/C", "setting": "dose: 125.0 mg/kg/injection, schedule: Q07DX002 (ip), vehicle: saline", "result": "104 % of control"},
      {"measurement": "T/C", "setting": "dose: 125.0 mg/kg/injection, schedule: Q#A X022 (ip), vehicle: saline", "result": "59 % of control"},
      {"measurement": "T/C", "setting": "dose: 125.25 mg/kg/injection, schedule: Q01DX011 (ip), vehicle: carboxymethylcellulose (CMC)", "result": "63 % of control"},
      {"measurement": "T/C", "setting": "dose: 200.4 mg/kg/injection, schedule: Q01DX011 (ip), vehicle: carboxymethylcellulose (CMC)", "result": "41 % of control and 50 % of control"},
      {"measurement": "T/C", "setting": "dose: 205.0 mg/kg/injection, schedule: Q01DX011 (ip), vehicle: carboxymethylcellulose (CMC)", "result": "116 % of control"},
      {"measurement": "T/C", "setting": "dose: 250.0 mg/kg/injection, schedule: Q01DX001 (ip), vehicle: saline", "result": "92 % of control and 93 % of control"},
      {"measurement": "T/C", "setting": "dose: 250.0 mg/kg/injection, schedule: Q01DX006 (iv), vehicle: saline", "result": "74 % of control"},
      {"measurement": "T/C", "setting": "dose: 250.0 mg/kg/injection, schedule: Q01DX011 (im), vehicle: saline", "result": "65 % of control"},
      {"measurement": "T/C", "setting": "[2]", "result": "53 % of control"},
      {"measurement": "T/C", "setting": "dose: 250.0 mg/kg/injection, schedule: Q01DX011 (ip), vehicle: saline", "result": "51 % of control"},
      {"measurement": "T/C", "setting": "dose: 250.0 mg/kg/injection, schedule: Q01DX011 (oral), vehicle: saline", "result": "69 % of control"},
      {"measurement": "T/C", "setting": "dose: 250.0 mg/kg/injection, schedule: Q01DX011 (sc), vehicle: saline", "result": "67 % of control"},
      {"measurement": "T/C", "setting": "dose: 250.0 mg/kg/injection, schedule: Q07DX002 (ip), vehicle: saline", "result": "85 % of control"},
      {"measurement": "T/C", "setting": "dose: 250.0 mg/kg/injection, schedule: Q#A X022 (ip), vehicle: saline", "result": "9 % of control"},
      {"measurement": "T/C", "setting": "dose: 328.0 mg/kg/injection, schedule: Q01DX011 (ip), vehicle: carboxymethylcellulose (CMC)", "result": "41 % of control and 52 % of control"},
      {"measurement": "T/C", "setting": "dose: 375.0 mg/kg/injection, schedule: Q03DX004 (ip), vehicle: saline", "result": "59 % of control"},
      {"measurement": "T/C", "setting": "dose: 500.0 mg/kg/injection, schedule: Q01DX001 (ip), vehicle: saline", "result": "110 % of control and 85 % of control"},
      {"measurement": "T/C", "setting": "dose: 500.0 mg/kg/injection, schedule: Q01DX006 (iv), vehicle: saline", "result": "38 % of control"},
      {"measurement": "T/C", "setting": "dose: 500.0 mg/kg/injection, schedule: Q01DX011 (im), vehicle: saline", "result": "32 % of control"},
      {"measurement": "T/C", "setting": "dose: 500.0 mg/kg/injection, schedule: Q01DX011 (ip), vehicle: methylcellulose (MC)", "result": "33 % of control"},
      {"measurement": "T/C", "setting": "dose: 500.0 mg/kg/injection, schedule: Q01DX011 (ip), vehicle: saline", "result": "19 % of control"},
      {"measurement": "T/C", "setting": "dose: 500.0 mg/kg/injection, schedule: Q01DX011 (oral), vehicle: saline", "result": "20 % of control"},
      {"measurement": "T/C", "setting": "dose: 500.0 mg/kg/injection, schedule: Q01DX011 (sc), vehicle: saline", "result": "42 % of control"},
      {"measurement": "T/C", "setting": "dose: 500.0 mg/kg/injection, schedule: Q07DX002 (ip), vehicle: saline", "result": "83 % of control"},
      {"measurement": "T/C", "setting": "dose: 501.0 mg/kg/injection, schedule: Q01DX011 (ip), vehicle: carboxymethylcellulose (CMC)", "result": "17 % of control and 27 % of control"},
      {"measurement": "T/C", "setting": "dose: 546.6 mg/kg/injection, schedule: Q01DX011 (ip), vehicle: carboxymethylcellulose (CMC)", "result": "22 % of control and 23 % of control"},
      {"measurement": "T/C", "setting": "dose: 750.0 mg/kg/injection, schedule: Q03DX004 (ip), vehicle: saline", "result": "54 % of control"},
      {"measurement": "T/C", "setting": "dose: 820.0 mg/kg/injection, schedule: Q01DX011 (ip), vehicle: carboxymethylcellulose (CMC)", "result": "10 % of control and 20 % of control"},
      {"measurement": "T/C", "setting": "dose: 1000.0 mg/kg/injection, schedule: Q01DX001 (ip), vehicle: saline", "result": "49 % of control and 64 % of control"},
      {"measurement": "T/C", "setting": "dose: 1000.0 mg/kg/injection, schedule: Q01DX006 (iv), vehicle: saline", "result": "21 % of control"},
      {"measurement": "T/C", "setting": "dose: 1000.0 mg/kg/injection, schedule: Q07DX002 (ip), vehicle: saline", "result": "69 % of control"}
    ]},
    {"molecule": "CSc1ncc(Br)c(NCc2ccccc2Cl)n1", "values": [
      {"measurement": "T/C", "setting": "dose: 25.0 mg/kg/injection, schedule: Q01DX011 (ip), vehicle: methylcellulose (MC)", "result": "65 % of control"},
      {"measurement": "T/C", "setting": "dose: 31.0 mg/kg/injection, schedule: Q01DX011 (ip), vehicle: methylcellulose (MC)", "result": "106 % of control"},
      {"measurement": "T/C", "setting": "dose: 62.0 mg/kg/injection, schedule: Q01DX011 (ip), vehicle: methylcellulose (MC)", "result": "103 % of control"},
      {"measurement": "T/C", "setting": "[1]", "result": "85 % of control"},
      {"measurement": "T/C", "setting": "[2]", "result": "80 % of control"}
    ]}
  ]
}
